Test: xn = mol fraction of the nth substance listed
Conditions: Liquid; for mass density: Vibrating tube method; for viscosity: Vibrating wire viscometry

O=C=O [carbon dioxide] + O
Conditions | mass density [kg/m3] | viscosity [mPa·s]
274.72 K, 30290 kPa, x1 = 0.0271 | 1030.1 | –
274.72 K, 50410 kPa, x1 = 0.0271 | 1038.8 | –
274.72 K, 70530 kPa, x1 = 0.0271 | 1047.2 | –
274.72 K, 100770 kPa, x1 = 0.0271 | 1059.2 | –
274.73 K, 15010 kPa, x1 = 0.0086 | 1012 | –
274.73 K, 30110 kPa, x1 = 0.0086 | 1019 | –
274.73 K, 50240 kPa, x1 = 0.0086 | 1028.1 | –
274.73 K, 70360 kPa, x1 = 0.0086 | 1036.8 | –
274.73 K, 100670 kPa, x1 = 0.0086 | 1049.3 | –
274.77 K, 15080 kPa, x1 = 0.0168 | 1017.3 | –
274.77 K, 30190 kPa, x1 = 0.0168 | 1024.1 | –
274.77 K, 50310 kPa, x1 = 0.0168 | 1033 | –
274.77 K, 70430 kPa, x1 = 0.0168 | 1041.6 | –
274.77 K, 100710 kPa, x1 = 0.0168 | 1053.9 | –
294.27 K, 15100 kPa, x1 = 0.0168 | – | 1.049
294.27 K, 30200 kPa, x1 = 0.0168 | – | 1.044
294.27 K, 50200 kPa, x1 = 0.0168 | – | 1.044
294.27 K, 70200 kPa, x1 = 0.0168 | – | 1.041
294.27 K, 96300 kPa, x1 = 0.0168 | – | 1.046
294.3 K, 15100 kPa, x1 = 0.0086 | – | 1.013
294.3 K, 30200 kPa, x1 = 0.0086 | – | 1.014
294.3 K, 50300 kPa, x1 = 0.0086 | – | 1.012
294.3 K, 70300 kPa, x1 = 0.0086 | – | 1.008
294.3 K, 96400 kPa, x1 = 0.0086 | – | 1.008
294.31 K, 30300 kPa, x1 = 0.0271 | – | 1.096
294.31 K, 50300 kPa, x1 = 0.0271 | – | 1.095
294.31 K, 70400 kPa, x1 = 0.0271 | – | 1.097
294.31 K, 96500 kPa, x1 = 0.0271 | – | 1.1
296.17 K, 15100 kPa, x1 = 0.0086 | 1008.6 | –
296.17 K, 30200 kPa, x1 = 0.0086 | 1015 | –
296.17 K, 50260 kPa, x1 = 0.0086 | 1023.4 | –
296.17 K, 70330 kPa, x1 = 0.0086 | 1031.4 | –
296.17 K, 100650 kPa, x1 = 0.0086 | 1042.9 | –
296.18 K, 30250 kPa, x1 = 0.0271 | 1025.3 | –
296.18 K, 50360 kPa, x1 = 0.0271 | 1033.4 | –
296.18 K, 70440 kPa, x1 = 0.0271 | 1041.2 | –
296.18 K, 100760 kPa, x1 = 0.0271 | 1052.6 | –
296.19 K, 15070 kPa, x1 = 0.0168 | 1013.3 | –
296.19 K, 30170 kPa, x1 = 0.0168 | 1019.7 | –
296.19 K, 50300 kPa, x1 = 0.0168 | 1027.9 | –
296.19 K, 70410 kPa, x1 = 0.0168 | 1035.9 | –
296.19 K, 100730 kPa, x1 = 0.0168 | 1047.3 | –
322.91 K, 15000 kPa, x1 = 0.0168 | – | 0.568
322.91 K, 30100 kPa, x1 = 0.0168 | – | 0.573
322.91 K, 50200 kPa, x1 = 0.0168 | – | 0.578
322.91 K, 70200 kPa, x1 = 0.0168 | – | 0.584
322.91 K, 96200 kPa, x1 = 0.0168 | – | 0.592
322.93 K, 15000 kPa, x1 = 0.0086 | – | 0.56
322.93 K, 30100 kPa, x1 = 0.0086 | – | 0.564
322.93 K, 50200 kPa, x1 = 0.0086 | – | 0.568
322.93 K, 70200 kPa, x1 = 0.0086 | – | 0.573
322.93 K, 96300 kPa, x1 = 0.0086 | – | 0.582
323.12 K, 70400 kPa, x1 = 0.0271 | – | 0.606
323.12 K, 96500 kPa, x1 = 0.0271 | – | 0.615
323.43 K, 15060 kPa, x1 = 0.0168 | 1002.5 | –
323.43 K, 30180 kPa, x1 = 0.0168 | 1008.8 | –
323.43 K, 50300 kPa, x1 = 0.0168 | 1016.9 | –
323.43 K, 70420 kPa, x1 = 0.0168 | 1024.6 | –
323.43 K, 70460 kPa, x1 = 0.0271 | 1029.6 | –
323.43 K, 100720 kPa, x1 = 0.0168 | 1035.7 | –
323.43 K, 100780 kPa, x1 = 0.0271 | 1040.7 | –
323.45 K, 15020 kPa, x1 = 0.0086 | 998.4 | –
323.45 K, 30130 kPa, x1 = 0.0086 | 1004.7 | –
323.45 K, 50250 kPa, x1 = 0.0086 | 1012.8 | –
323.45 K, 70360 kPa, x1 = 0.0086 | 1020.6 | –
323.45 K, 100720 kPa, x1 = 0.0086 | 1031.6 | –
348.32 K, 15050 kPa, x1 = 0.0086 | 984.8 | –
348.32 K, 30150 kPa, x1 = 0.0086 | 991.3 | –
348.32 K, 50270 kPa, x1 = 0.0086 | 999.5 | –
348.32 K, 70370 kPa, x1 = 0.0086 | 1007.3 | –
348.32 K, 100710 kPa, x1 = 0.0086 | 1018.6 | –
348.33 K, 70580 kPa, x1 = 0.0271 | 1015.3 | –
348.33 K, 100780 kPa, x1 = 0.0271 | 1026.8 | –
348.38 K, 30200 kPa, x1 = 0.0168 | 994.9 | –
348.38 K, 50320 kPa, x1 = 0.0168 | 1003.2 | –
348.38 K, 70450 kPa, x1 = 0.0168 | 1011.1 | –
348.38 K, 100740 kPa, x1 = 0.0168 | 1022.4 | –
373.03 K, 30100 kPa, x1 = 0.0168 | – | 0.2932
373.03 K, 50200 kPa, x1 = 0.0168 | – | 0.2989
373.03 K, 70200 kPa, x1 = 0.0168 | – | 0.304
373.03 K, 96200 kPa, x1 = 0.0168 | – | 0.3111
373.13 K, 15000 kPa, x1 = 0.0086 | – | 0.286
373.13 K, 30100 kPa, x1 = 0.0086 | – | 0.291
373.13 K, 50200 kPa, x1 = 0.0086 | – | 0.297

Reference: the NIST ThermoML archive (doi:10.1021/je5009125)
